From patent US11952374B2, “Bicyclic compounds” (Aligos Therapeutics, Inc., priority 2020, dated 2024)
Where two headings read alike, the source gives them in different places.

What was measured:
[1] = Cell viability by CellTiter-Glo 2.0 (intracellular ATP) in HepG2.117 cells; assay type: cell-based; conditions: human, CellTiter-Glo 2.0, 3 days incubation
Experimental: (§1) The following assay procedure describes the HBV antiviral assay, using HepG2.117 cells, which carry a stably integrated genotype D HBV genome under the control of a Tet-off promoter, and intracellular HBV DNA quantification as endpoint. Cell viability is assessed in parallel by measuring the intracellular ATP content using CellTiter-Glo 2.0 (Promega).
(§2) On day 1, medium is removed from each well, the test articles are diluted in culture medium without doxcycyline and 100 μL was added to cell culture wells (9 concentrations, 4-fold dilution). For each plate, 6 untreated (merely DMSO) wells are included. The final concentration of DMSO in the culture medium is 2%. Each plate is prepared in duplicate (one for HBV DNA extraction, one for CellTiter-Glo 2.0 measurement). The cells are incubated at 37° C. and 5% CO2 for 3 days.
(§3) On day 4, cell viability is assessed using CellTiter-Glo 2.0 and cell lysates are prepared for HBV DNA extraction and subsequent quantification by qPCR.
(§4) Using the other plates, the cell viability is quantified by CellTiter-Glo 2.0 according to the manufacturer's manual. In brief, 100 μL of reagent solution is added to the culture plates and shaken for 2′. The plates are incubated at room temperature for 10 min and luminescence signal is subsequently measured on a VarioSkan Lux (ThermoFisher) plate reader.
(§5) Cell viability is calculated as follows: % Cell viability=(luminescence value of test sample)/(average luminescence value of 2% DMSO control)×100%. HBV DNA inhibition was calculated as follows: 100−(HBV DNA copy number of test sample)/(average HBV DNA copy number of 2% DMSO control)×100%. No normalization to entecavir is required due to the excellent dynamic window of this assay. The CC50, EC50 and EC90 values were determined by dose-response curves fitted using non-linear regression.

[2] = tested on: HBV; experiment: HBV-DNA antiviral assay using HepG2.117 cells (intracellular HBV DNA by qPCR); assay type: cell-based, HBV genotype D
Experimental: as §1
On day 0, HepG2.117 cells (which are maintained in routine cell culture with doxycycline present in the medium at a final concentration of 1 μg/mL) are seeded in 96-well plates (white with clear bottom) at a density of 2.0×10^4 cells/well (0.1 mL/well) in medium without doxycycline to induce pgRNA transcription and subsequent formation of HBV particles. The cells are incubated at 37° C. and 5% CO2.
as §2, §3
Medium is removed from each well and 100 μL of 0.33% NP-40 in H2O was added to each well. Plates are sealed, incubated at 4° C. for 5 mins, vortexed extensively and centrifuged briefly. Next, 35 μL of lysate is added to 65 μL QuickExtract DNA Extraction Solution (Epicentre) in a PCR plate for each well. PCR plate is incubated at 65° C. for 6 mins, 98° C. for 2 mins and finally cooled to 4° C. HBV DNA is then quantified by qPCR with HBV-specific primers and probes as specified in Table 2 using the Bio-Rad SSOAdvanced Universal Probes Supermix on a CFX96 machine (Bio-Rad). The PCR cycle program consisted of 95° C. for 3 mins, followed by 40 cycles at 95° C. for 10 sec and 60° C. for 30 sec.
A DNA standard is prepared by dilution of an IDT gBlock corresponding to the amplicon with concentrations ranging from 10^A2 to 10^A8 copies/input (i.e. per 4 μL) and used to generate a standard curve by plotting Cq values vs. HBV DNA standard concentration. The quantity of HBV DNA in each sample is determined by interpolating from the standard curve.
as §5

[3] = tested on: HepG2.117 cells; experiment: Cell viability by CellTiter-Glo 2.0 (intracellular ATP) in HepG2.117 cells; assay type: cell-based; conditions: CellTiter-Glo 2.0, 3 days incubation
Experimental: as §1, §2, §3, §4, §5

[4] = Hepatitis B virus, HepG2.117, 72 h
[5] = Hepatitis B virus, 72 h, HBV DNA inhibition, HepG2.117 cells, 3 days incubation, read-out: EC50
[6] = HBV DNA inhibition, HepG2.117 cells, 3 days incubation, read-out: EC50

SMILES | CC50 at 3 days [1] | EC50 [2, 4] | EC50 [2, 5] | CC50 [3] | EC50 [2, 6]
COc1ccc(-n2c(-c3ccccc3)nc3c(c2=O)CCN(C(=O)c2ccc(Br)c(C(F)(F)F)c2)C3)cc1 [Compound 7, 7-(4-bromo-3-(trifluoromethyl)benzoyl)-3-(4-methoxyphenyl)-2-phenyl-5,6,7,8-tetrahydropyrido[3,4-d]pyrimidin-4(3H)-one] | > 0.5 µM | 0.5 to 5 µM |  |  | 
CNC(=O)c1ccc(-n2c(-n3ccc(C4CC4)n3)nc3c(c2=O)C[C@@H](C)N(C(=O)c2ccc(Br)c(C(F)(F)F)c2)C3)cc1 [Compound 10, (R)-4-(7-(4-bromo-3-(trifluoromethyl)benzoyl)-2-(3-cyclopropyl-1H-pyrazol-1-yl)-6-methyl-4-oxo-5,6,7,8-tetrahydropyrido[3,4-d]pyrimidin-3(4H)-yl)-N-methylbenzamide] | > 50 µM |  | < 0.05 µM |  | 
CNC(=O)c1ccc(-n2c(N(CC3CC3)c3ccccc3)nc3c(c2=O)C[C@@H](C)N(C(=O)c2ccc(Br)c(C(F)(F)F)c2)C3)cc1 [Compound 12, (R)-4-(7-(4-bromo-3-(trifluoromethyl)benzoyl)-2-((cyclopropylmethyl)(phenyl)amino)-6-methyl-4-oxo-5,6,7,8-tetrahydropyrido[3,4-d]pyrimidin-3(4H)-yl)-N-methylbenzamide] | 10.8 µM |  | < 0.05 µM |  | 
CNC(=O)c1ccc(-n2c(N(Cc3ccccc3)CC3CC3)nc3c(c2=O)C[C@@H](C)N(C(=O)c2ccc(Br)c(C(F)(F)F)c2)C3)cc1 [Compound 4, (R)-4-(2-(benzyl(cyclopropylmethyl)amino)-7-(4-bromo-3-(trifluoromethyl)benzoyl)-6-methyl-4-oxo-5,6,7,8-tetrahydropyrido[3,4-d]pyrimidin-3(4H)-yl)-N-methylbenzamide] | > 50 µM |  | < 0.05 µM |  | 
CNC(=O)c1ccc(-n2c(NCc3ccccc3-c3ccccn3)nc3c(c2=O)C[C@@H](C)N(C(=O)c2ccc(Br)c(C(F)(F)F)c2)C3)c(Cl)c1 (single isomer, unassigned) [Compound 1b] |  |  |  | > 50 µM | < 0.05 µM
CNC(=O)c1ccc(-n2c(-c3cccc(C(C)C)n3)nc3c(c2=O)C[C@@H](C)N(C(=O)c2ccc(Br)c(C(F)(F)F)c2)C3)cc1 [Compound 8, (R)-4-(7-(4-bromo-3-(trifluoromethyl)benzoyl)-2-(6-isopropylpyridin-2-yl)-6-methyl-4-oxo-5,6,7,8-tetrahydropyrido[3,4-d]pyrimidin-3(4H)-yl)-N-methylbenzamide] | 30 µM |  | < 0.05 µM |  | 
CNC(=O)c1ccc(-n2c(-n3ccc(CC(C)C)n3)nc3c(c2=O)C[C@@H](C)N(C(=O)c2ccc(Br)c(C(F)(F)F)c2)C3)cc1 [Compound 14] | > 50 µM |  | < 0.05 µM |  | 
CNC(=O)c1ccc(-n2c([C@@H]3CCCN3C(C)C)nc3c(c2=O)CC(C)N(C(=O)c2ccc(Br)c(C(F)(F)F)c2)C3)cc1 (single isomer, unassigned) [Compound 11a] | > 50 µM |  | 0.5 to 5 µM |  | 
CCN1CCC(c2nc3c(c(=O)n2-c2ccc(C(=O)NC)cc2)CC(C)N(C(=O)c2ccc(Br)c(C(F)(F)F)c2)C3)C1 (stereo not drawn) [Compound 18, 4-(7-(4-bromo-3-(trifluoromethyl)benzoyl)-2-(1-ethylpyrrolidin-3-yl)-6-methyl-4-oxo-5,6,7,8-tetrahydropyrido[3,4-d]pyrimidin-3(4H)-yl)-N-methylbenzamide] | > 50 µM |  | > 5 µM |  | 
CNC(=O)c1ccc(-n2c(NCc3ccccc3-c3ccccn3)nc3c(c2=O)C[C@@H](C)N(C(=O)c2ccc(Br)c(C(F)(F)F)c2)C3)c(Cl)c1 (single isomer, unassigned) [Compound 1a] | > 50 µM |  | < 0.05 µM |  | 
CNC(=O)c1ccc(-n2c(-n3ccc(C(C)C)n3)nc3c(c2=O)C[C@@H](C)N(C(=O)c2ccc(Br)c(C(F)(F)F)c2)C3)cc1 [Compound 2, (R)-4-(7-(4-bromo-3-(trifluoromethyl)benzoyl)-2-(3-isopropyl-1H-pyrazol-1-yl)-6-methyl-4-oxo-5,6,7,8-tetrahydropyrido[3,4-d]pyrimidin-3(4H)-yl)-N-methylbenzamide] | > 50 µM |  | < 0.05 µM |  | 
CNC(=O)c1ccc(-n2c(-n3ccc(C)n3)nc3c(c2=O)C[C@@H](C)N(C(=O)c2ccc(Br)c(C(F)(F)F)c2)C3)cc1 [Compound 19] | > 50 µM |  | < 0.05 µM |  | 
CCc1ccn(-c2nc3c(c(=O)n2-c2ccc(C(=O)NC)cc2)C[C@@H](C)N(C(=O)c2ccc(Br)c(C(F)(F)F)c2)C3)n1 [Compound 15] | > 50 µM |  | < 0.05 µM |  | 
CNC(=O)c1ccc(-n2c(-n3cc(C4CC4)cn3)nc3c(c2=O)C[C@@H](C)N(C(=O)c2ccc(Br)c(C(F)(F)F)c2)C3)cc1 [Compound 9, (R)-4-(7-(4-bromo-3-(trifluoromethyl)benzoyl)-2-(4-cyclopropyl-1H-pyrazol-1-yl)-6-methyl-4-oxo-5,6,7,8-tetrahydropyrido[3,4-d]pyrimidin-3(4H)-yl)-N-methylbenzamide] | 27.8 µM |  | 0.05 to 0.5 µM |  | 
CNC(=O)c1ccc(-n2c(-n3cccn3)nc3c(c2=O)C[C@@H](C)N(C(=O)c2ccc(Br)c(C(F)(F)F)c2)C3)cc1 [Compound 6, (R)-4-(7-(4-bromo-3-(trifluoromethyl)benzoyl)-6-methyl-4-oxo-2-(1H-pyrazol-1-yl)-5,6,7,8-tetrahydropyrido[3,4-d]pyrimidin-3(4H)-yl)-N-methylbenzamide] | > 50 µM |  | < 0.05 µM |  | 
CNC(=O)c1ccc(-n2c([C@@H]3CCCN3C(C)C)nc3c(c2=O)CC(C)N(C(=O)c2ccc(Br)c(C(F)(F)F)c2)C3)cc1 (single isomer, unassigned) [Compound 11b] |  |  |  | > 50 µM | 0.5 to 5 µM
CNC(=O)c1ccc(-n2c(-n3cc(CC(C)C)cn3)nc3c(c2=O)C[C@@H](C)N(C(=O)c2ccc(Br)c(C(F)(F)F)c2)C3)cc1 [Compound 16] | > 50 µM |  | 0.05 to 0.5 µM |  | 
CNC(=O)c1ccc(-n2c(N(Cc3ccccc3)C3CC(F)(F)C3)nc3c(c2=O)C[C@@H](C)N(C(=O)c2ccc(Br)c(C(F)(F)F)c2)C3)cc1 [Compound 3, (R)-4-(2-(benzyl(3,3-difluorocyclobutyl)amino)-7-(4-bromo-3-(trifluoromethyl)benzoyl)-6-methyl-4-oxo-5,6,7,8-tetrahydropyrido[3,4-d]pyrimidin-3(4H)-yl)-N-methylbenzamide] | > 50 µM |  | < 0.05 µM |  | 
CNC(=O)c1ccc(-n2c(C3CCN(C(=O)OC(C)(C)C)C3)nc3c(c2=O)CC(C)N(C(=O)c2ccc(Br)c(C(F)(F)F)c2)C3)cc1 (stereo not drawn) [Compound 17, t-butyl 3-(7-(4-bromo-3-(trifluoromethyl)benzoyl)-6-methyl-3-(4-(methylcarbamoyl)phenyl)-4-oxo-3,4,5,6,7,8-hexahydropyrido[3,4-d]pyrimidin-2-yl)pyrrolidine-1-carboxylate] | 24.2 µM |  | 0.05 to 0.5 µM |  | 
CNC(=O)c1ccc(-n2c(N(Cc3ccccc3)C3CN(C)C3)nc3c(c2=O)C[C@@H](C)N(C(=O)c2ccc(Br)c(C(F)(F)F)c2)C3)cc1 [Compound 13, (R)-4-(2-(benzyl(1-methylazetidin-3-yl)amino)-7-(4-bromo-3-(trifluoromethyl)benzoyl)-6-methyl-4-oxo-5,6,7,8-tetrahydropyrido[3,4-d]pyrimidin-3(4H)-yl)-N-methylbenzamide] | 27 µM |  | 0.5 to 5 µM |  | 
CNC(=O)c1ccc(-n2c(N(Cc3ccccc3)C3CCC3)nc3c(c2=O)C[C@@H](C)N(C(=O)c2ccc(Br)c(C(F)(F)F)c2)C3)cc1 [Compound 5, (R)-4-(2-(benzyl(cyclobutyl)amino)-7-(4-bromo-3-(trifluoromethyl)benzoyl)-6-methyl-4-oxo-5,6,7,8-tetrahydropyrido[3,4-d]pyrimidin-3(4H)-yl)-N-methylbenzamide] | > 0.5 µM | < 0.05 µM |  |  | 
